# Measurements reported in the supplement of paper PMC4862054.
# What was measured:
# CAL-148 [1] = experiment: normalised viability (% of control), CellTiter-Blue; higher = more viable cells (about 100 = DMSO control); conditions: 10000 nM; incubation time: 72 h
# Protocol: (§1)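 DSRT, CellTiter-Blue viability, 72 h incubation. Signal is normalised to DMSO and benzethonium chloride controls. Value is the normalised response at dose 9.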
# CAL-85-1 [2] = experiment: as above; conditions: 10000 nM; incubation time: 72 h
# Protocol: as §1
# DU-4475 [3] = experiment: as above; conditions: 10000 nM; incubation time: 72 h
# Protocol: as §1
# HDQ-P1 [4] = experiment: as above; conditions: 10000 nM; incubation time: 72 h
# Protocol: as §1
# BT-474 [5] = experiment: normalised viability (% of control), CellTiter-Blue; higher = more viable cells (100 = DMSO, 0 = benzethonium chloride kill control); conditions: 1 nM; incubation time: 72 h
# Protocol: (§2)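 DSRT, CellTiter-Blue viability, 72 h incubation. Signal is normalised to DMSO and benzethonium chloride controls. Value is the normalised response at dose 1.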
# BT-549 = experiment: as above; conditions: 1 nM; incubation time: 72 h
# Protocol: as §2
# CAL-120 [6] = experiment: as above; conditions: 1 nM; incubation time: 72 h
# Protocol: as §2
# CAL-148 [7] = experiment: as above; conditions: 1 nM; incubation time: 72 h
# Protocol: as §2
# CAL-51 = experiment: as above; conditions: 1 nM; incubation time: 72 h
# Protocol: as §2
# CAL-85-1 [8] = experiment: as above; conditions: 1 nM; incubation time: 72 h
# Protocol: as §2
# DU-4475 [9] = experiment: as above; conditions: 1 nM; incubation time: 72 h
# Protocol: as §2
# HCC1143 = experiment: as above; conditions: 1 nM; incubation time: 72 h
# Protocol: as §2
# HCC1599 [10] = experiment: as above; conditions: 1 nM; incubation time: 72 h
# Protocol: as §2
# HCC1937 [11] = experiment: as above; conditions: 1 nM; incubation time: 72 h
# Protocol: as §2
# HDQ-P1 [12] = experiment: as above; conditions: 1 nM; incubation time: 72 h
# Protocol: as §2
# Hs578T = experiment: as above; conditions: 1 nM; incubation time: 72 h
# Protocol: as §2
# MDA-MB-231 = experiment: as above; conditions: 1 nM; incubation time: 72 h
# Protocol: as §2
# MDA-MB-436 = experiment: as above; conditions: 1 nM; incubation time: 72 h
# Protocol: as §2
# MDA-MB-453 = experiment: as above; conditions: 1 nM; incubation time: 72 h
# Protocol: as §2
# MDA-MB-468 = experiment: as above; conditions: 1 nM; incubation time: 72 h
# Protocol: as §2
# MFM-223 = experiment: as above; conditions: 1 nM; incubation time: 72 h
# Protocol: as §2
# SK-BR-3 = experiment: as above; conditions: 1 nM; incubation time: 72 h
# Protocol: as §2
# BT-474 [13] = experiment: drug sensitivity score (DSS), CellTox Green (DSS (AUC-based score)); higher = stronger drug effect (viability inhibition or cytotoxicity); extreme values may be limits of the assay; conditions: incubation time: 72 h
# In short: (§3)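 The drug sensitivity score reflects the area under a fitted dose-response curve. To obtain it, breast cancer cells in 20 µl suspension were seeded into 384-well plates containing compound at 5 concentrations, 10-fold apart over a compound-specific 10,000-fold range, and incubated 72 h. CellTox Green fluorescence (485/520 nm) was read first and CellTiter-Glo luminescence second, after 10 min at room temperature. Each plate was normalised to 0.1 % DMSO and a positive kill control.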
# CAL-120 [14] = experiment: as above; conditions: incubation time: 72 h
# In short: as §3
# HCC1599 [15] = experiment: as above; conditions: incubation time: 72 h
# In short: as §3
# HCC1937 [16] = experiment: as above; conditions: incubation time: 72 h
# In short: as §3
# HDQ-P1 [17] = experiment: as above; conditions: incubation time: 72 h
# In short: as §3
# MCF-10A = experiment: as above; conditions: incubation time: 72 h
# In short: as §3
compound,measurement,setting,value
CC(C)(C#N)c1cc(Cn2cncn2)cc(C(C)(C)C#N)c1 [Anastrozole],normalised viability,CAL-148 [1],94.2%
same,normalised viability,CAL-85-1 [2],93.9%
same,normalised viability,DU-4475 [3],112%
same,normalised viability,HDQ-P1 [4],98.6%
same,normalised viability,BT-474 [5],73.5%
same,normalised viability,BT-549,122%
same,normalised viability,CAL-120 [6],88.8%
same,normalised viability,CAL-148 [7],99%
same,normalised viability,CAL-51,108%
same,normalised viability,CAL-85-1 [8],94.1%
same,normalised viability,DU-4475 [9],94%
same,normalised viability,HCC1143,83.4%
same,normalised viability,HCC1599 [10],107%
same,normalised viability,HCC1937 [11],94.6%
same,normalised viability,HDQ-P1 [12],101%
same,normalised viability,Hs578T,97.2%
same,normalised viability,MDA-MB-231,91.7%
same,normalised viability,MDA-MB-436,99%
same,normalised viability,MDA-MB-453,98.4%
same,normalised viability,MDA-MB-468,97.9%
same,normalised viability,MFM-223,98.8%
same,normalised viability,SK-BR-3,97.7%
same,drug sensitivity score,BT-474 [13],0
same,drug sensitivity score,CAL-120 [14],0
same,drug sensitivity score,HCC1599 [15],0
same,drug sensitivity score,HCC1937 [16],0
same,drug sensitivity score,HDQ-P1 [17],0
same,drug sensitivity score,MCF-10A,0
